These results are taken from patent US20240199623A1 (ILDONG PHARMACEUTICAL CO., LTD., priority 2020, published 2024).

Structures are written as SMILES. ≈ marks a conversion by molar mass, not a printed value. Where only a bound is given, the exact number is not on record here.

Series [1] is described as follows: Phosphate-buffered saline (PBS) solubility of compounds. It is filed as physicochemical. Particulars: aqueous buffer, thermodynamic from solid, PBS pH 7.5, 0.5 mg/mL, vortexed 90 min, filtered, LC-MS/MS, read-out: Solubility Range. Here is the method:
PBS solutions (pH 7.5) were prepared according to the following compositions and stored at 4° C. Test compounds were dissolved in PBS (pH 7.5) at 0.5 mg/mL and vortexed for 90 min. The PBS solution was sequentially filtered through a 0.45, 1.2, […] syringe filter. Concentration of test compounds were determined using LC-MS/MS with appropriate dilution of the samples.

For another series, the target named is human wild type-CFTR (Homo sapiens, UniProt P13569). As to the kind of experiment: Cell-based YFP assay. Further details: expressed in transfected cells; host or cells: CHO-K1 (Chinese hamster ovary). Particulars: CHO-K1 cells expressing human wild type-CFTR and YFP-H148Q/I152L; forskolin 20 μM = 100% activity; read-out: Cell-based YFP Assay (EC50) Concentration Range. The essentials:
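CHO-K1 cells co-expressing human wild-type CFTR and YFP-H148Q/I152L halide sensor, grown 48 h at 37 °C, then in PBS. YFP quenching by I⁻ influx read at 37 °C after adding 140 mM I⁻ solution, sampled every 0.4 s for 14 s. Triplicates averaged; EC50 fitted.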

Chain of human wild type-CFTR (P13569 whole entry): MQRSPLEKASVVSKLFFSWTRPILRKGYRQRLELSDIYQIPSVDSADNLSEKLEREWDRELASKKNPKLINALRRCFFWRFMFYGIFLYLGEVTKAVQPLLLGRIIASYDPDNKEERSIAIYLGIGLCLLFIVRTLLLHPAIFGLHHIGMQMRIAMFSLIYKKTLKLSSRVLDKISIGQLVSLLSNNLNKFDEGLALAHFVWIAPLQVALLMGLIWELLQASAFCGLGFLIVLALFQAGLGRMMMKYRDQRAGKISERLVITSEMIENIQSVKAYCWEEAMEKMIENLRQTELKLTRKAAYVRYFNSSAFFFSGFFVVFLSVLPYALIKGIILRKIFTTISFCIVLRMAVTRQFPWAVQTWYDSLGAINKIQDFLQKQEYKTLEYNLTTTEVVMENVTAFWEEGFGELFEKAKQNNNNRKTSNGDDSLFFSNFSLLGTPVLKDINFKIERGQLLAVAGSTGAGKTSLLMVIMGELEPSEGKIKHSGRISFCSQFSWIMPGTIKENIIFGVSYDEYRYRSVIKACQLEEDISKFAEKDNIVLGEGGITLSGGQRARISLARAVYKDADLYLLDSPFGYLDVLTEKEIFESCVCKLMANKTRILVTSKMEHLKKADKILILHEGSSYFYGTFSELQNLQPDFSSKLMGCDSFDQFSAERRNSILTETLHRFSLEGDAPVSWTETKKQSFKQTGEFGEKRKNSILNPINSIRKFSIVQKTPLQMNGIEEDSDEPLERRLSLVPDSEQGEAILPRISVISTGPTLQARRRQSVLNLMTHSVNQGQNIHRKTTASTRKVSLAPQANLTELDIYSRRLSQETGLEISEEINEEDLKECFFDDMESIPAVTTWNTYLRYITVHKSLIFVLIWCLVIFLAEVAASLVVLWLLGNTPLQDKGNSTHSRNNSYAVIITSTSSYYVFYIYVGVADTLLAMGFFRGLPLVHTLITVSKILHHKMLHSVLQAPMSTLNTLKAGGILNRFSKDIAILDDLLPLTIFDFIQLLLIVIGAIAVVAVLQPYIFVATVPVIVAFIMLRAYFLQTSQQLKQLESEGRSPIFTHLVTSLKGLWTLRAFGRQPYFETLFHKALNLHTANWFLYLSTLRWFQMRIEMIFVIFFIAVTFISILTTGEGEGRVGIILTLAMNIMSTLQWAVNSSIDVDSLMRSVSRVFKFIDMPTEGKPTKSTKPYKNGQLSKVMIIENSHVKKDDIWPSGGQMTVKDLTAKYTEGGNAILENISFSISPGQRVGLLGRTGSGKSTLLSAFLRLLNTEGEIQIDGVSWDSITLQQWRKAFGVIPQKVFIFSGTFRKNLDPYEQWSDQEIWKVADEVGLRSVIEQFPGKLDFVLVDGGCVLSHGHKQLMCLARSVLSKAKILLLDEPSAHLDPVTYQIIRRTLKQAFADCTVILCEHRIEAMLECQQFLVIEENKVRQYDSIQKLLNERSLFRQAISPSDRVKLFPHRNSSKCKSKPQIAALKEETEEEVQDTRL

By solubility is commonly meant the dissolved amount per volume that the medium holds. As to `COc1ccc(-c2ccnc3cc(C(=O)Nc4cccc(C(=O)N5CCOCC5)c4)nn23)cc1OC` [Compound 55, 7-(3,4-dimethoxyphenyl)-N-(3-(morpholine-4-carbonyl)phenyl)pyrazolo [1,5-a]pyrimidine-2-carboxamide], the solubility at 90 min in series [1] is less than 0.1 µg/mL. Further, the EC50 on human wild type-CFTR is less than 200 nM.

For the compound `COc1ccc(-c2ccnc3cc(C(=O)Nc4ccc(NC(=O)[C@H](C)NC(=O)OC(C)(C)C)cc4)nn23)cc1OC` [Compound 281], in series [1], the solubility at 90 min was less than 0.1 µg/mL. Further, the EC50 on human wild type-CFTR was less than 200 nM.

For the compound `COc1ccc(-c2ccnc3cc(C(=O)N[C@H]4CC[C@H](C(=O)N5CCOCC5)CC4)nn23)cc1OC` [Compound 75, 7-(3,4-dimethoxyphenyl)-N-((1R,4R)-4-(morpholine-4-carbonyl)cyclohexyl) pyrazolo[1,5-a]pyrimidine-2-carboxamide], the solubility at 90 min in series [1] is more than 10 µg/mL. For the same compound, the EC50 at human wild type-CFTR is not below 2000 nM.

Consider `COc1ccc(-c2ccnc3cc(C(=O)Nc4ccc(C(=O)N5CCN(C)CC5)c(Cl)c4)nn23)cc1OC` [Compound 161, N-(3-chloro-4-(4-methylpiperazine-1-carbonyl)phenyl)-7-(3,4-dimethoxyphenyl)pyrazolo [1,5-a]pyrimidine-2-carboxamide], for which the solubility at 90 min in series [1] fell in the range of 0.1 to 10 µg/mL (≈ 0.187 to 18.7 µM). In addition, the EC50 at human wild type-CFTR fell in the range of 200 to 2000 nM.

`COc1ccc(-c2ccnc3cc(C(=O)Nc4ccc(C(=O)N5CC6(CN(C)C6)C5)cc4)nn23)cc1OC` [Compound 166, 7-(3,4-dimethoxyphenyl)-N-(4-(6-methyl-2,6-diazaspiro[3.3]heptane-2-carbonyl)phenyl)pyrazolo [1,5-a]pyrimidine-2-carboxamide]: the solubility at 90 min in series [1] is less than 0.1 µg/mL. For the same compound, the EC50 at human wild type-CFTR was 200 to 2000 nM.

As for `COc1ccc(-c2ccnc3cc(C(=O)Nc4ccc(C(=O)NCCN5CCN(C)CC5)cc4)nn23)cc1OC` [Compound 178, 7-(3,4-dimethoxyphenyl)-N-(4-((2-(4-methylpiperazin-1-yl)ethyl)carbamoyl)phenyl)pyrazolo[1,5-a]pyrimidine-2-carboxamide], the solubility at 90 min in series [1] was more than 10 µg/mL. Moreover, the EC50 on human wild type-CFTR fell in the range of 200 to 2000 nM.

Turning to `COC(=O)[C@@H](NC(=O)c1ccc(NC(=O)c2cc3nccc(-c4ccc(OC)c(OC)c4)n3n2)cc1)C(C)C` [Compound 58, methyl (4-(7-(3,4-dimethoxyphenyl)pyrazolo [1,5-a]pyrimidine-2-carboxamido)benzoyl)-L-valinate], the solubility at 90 min in series [1] was less than 0.1 µg/mL. Moreover, the EC50 on human wild type-CFTR is less than 200 nM.

On to `COc1ccc(-c2ccnc3cc(C(=O)N4CCN(C(=O)OC(C)(C)C)CC4)nn23)cc1OC` [Compound 62, tert-butyl 4-(7-(3,4-dimethoxyphenyl)pyrazolo[1,5-a]pyrimidine-2-carbonyl)piperazine-1-carboxylate], for which the solubility at 90 min in series [1] lay within 0.1 to 10 µg/mL (≈ 0.214 to 21.4 µM). The EC50 on human wild type-CFTR fell in the range of 200 to 2000 nM.

As to `COC(=O)[C@H](C)NC(=O)c1ccc(NC(=O)c2cc3nccc(-c4ccc(OC)c(OC)c4)n3n2)cc1` [Compound 42, methyl (4-(7-(3,4-dimethoxyphenyl)pyrazolo [1,5-a]pyrimidine-2-carboxamido)benzoyl)-L-alaninate], in series [1], the solubility at 90 min is less than 0.1 µg/mL. Also, the EC50 at human wild type-CFTR was less than 200 nM.

In the case of `COc1ccc(-c2ccnc3cc(C(=O)Nc4cccnc4)nn23)cc1OC` [Compound 18, 7-(3,4-dimethoxyphenyl)-N-(pyridin-3-yl) pyrazolo[1,5-a]pyrimidine-2-carboxamide], the solubility at 90 min in series [1] is less than 0.1 µg/mL. Further, the EC50 at human wild type-CFTR was 200 to 2000 nM.

In the case of `COc1ccc(-c2ccnc3cc(C(=O)Nc4ccc(NC(=O)[C@H](C)N)cc4)nn23)cc1OC` [Compound 284, (S)-N-(4-(2-amino-propanamido)phenyl)-7-(3,4-dimethoxyphenyl)pyrazolo [1,5-a]pyrimidine-2-carboxamide], in series [1], the solubility at 90 min was in the range of 0.1 to 10 µg/mL (≈ 0.217 to 21.7 µM). Moreover, the EC50 on human wild type-CFTR was less than 200 nM.

Turning to `COc1ccc(-c2ccnc3cc(C(=O)Nc4ccc(NC(=O)[C@@H](NC(=O)OC(C)(C)C)C(C)C)cc4)nn23)cc1OC` [Compound 282, tert-butyl (S)-(1-((4-(7-(3,4-dimethoxyphenyl)pyrazolo [1,5-a]pyrimidine-2-carboxamido)phenyl)amino)-3-methyl-1-oxobutan-2-yl)carbamate], in series [1], the solubility at 90 min is less than 0.1 µg/mL. Also, the EC50 at human wild type-CFTR was less than 200 nM.

Consider `COc1ccc(-c2ccnc3cc(C(=O)Nc4ccc(C(=O)N5CCOCC5)c(Cl)c4)nn23)cc1OC` [Compound 160, N-(3-chloro-4-(morpholine-4-carbonyl)phenyl)-7-(3,4-dimethoxyphenyl) pyrazolo[1,5-a]pyrimidine-2-carboxamide], for which, in series [1], the solubility at 90 min was less than 0.1 µg/mL. Further, the EC50 on human wild type-CFTR was 200 to 2000 nM.

With `COC(=O)c1ccc(NC(=O)c2cc3nccc(-c4ccc(OC)c(OC)c4)n3n2)c(C)c1` [Compound 125, methyl 4-(7-(3,4-dimethoxyphenyl)pyrazolo [1,5-a]pyrimidine-2-carboxamido)-3-methylbenzoate], in series [1], the solubility at 90 min is less than 0.1 µg/mL. Moreover, the EC50 on human wild type-CFTR is less than 200 nM.

Consider `COc1ccc(-c2ccnc3cc(C(=O)Nc4ccccc4)nn23)cc1OC` [Compound 1, 7-(3,4-dimethoxyphenyl)-N-phenylpyrazolo[1,5-a] pyrimidine-2-carboxamide], for which the solubility at 90 min in series [1] was less than 0.1 µg/mL. The EC50 at human wild type-CFTR is less than 200 nM.

Take `CCOc1ccc(NC(=O)Nc2cc3nccc(-c4ccc(OC)c(OC)c4)n3n2)cc1` [Compound 109, 1-(7-(3,4-dimethoxyphenyl)pyrazolo[1,5-a]pyrimidin-2-yl)-3-(4-ethoxyphenyl)urea]: the solubility at 90 min in series [1] is less than 0.1 µg/mL. Also, the EC50 at human wild type-CFTR fell in the range of 200 to 2000 nM.

For `COc1ccc(-c2ccnc3cc(C(=O)Nc4ccc(C(=O)O)cc4F)nn23)cc1OC` [Compound 156, 4-(7-(3,4-dimethoxyphenyl)pyrazolo[1,5-a]pyrimidine-2-carboxamido)-3-fluorobenzoic acid], in series [1], the solubility at 90 min was in the range of 0.1 to 10 µg/mL (≈ 0.229 to 22.9 µM). Also, the EC50 on human wild type-CFTR is less than 200 nM.

For `COC(=O)c1ccc(NC(=O)c2cc3nccc(-c4ccc(OC)c(Cl)c4)n3n2)cc1` [Compound 39, methyl 4-(7-(3-chloro-4-methoxyphenyl)pyrazolo [1,5-a]pyrimidine-2-carboxamido)benzoate], the solubility at 90 min in series [1] is less than 0.1 µg/mL. At human wild type-CFTR, the EC50 was in the range of 200 to 2000 nM.

With `COc1ccc(-c2ccnc3cc(C(=O)Nc4ccc(C(=O)O)c(O)c4)nn23)cc1OC` [Compound 168, 4-(7-(3,4-dimethoxyphenyl)pyrazolo[1,5-a]pyrimidine-2-carboxamido)-2-hydroxybenzoic acid], the solubility at 90 min in series [1] was less than 0.1 µg/mL. At human wild type-CFTR, the EC50 fell in the range of 200 to 2000 nM.

`COc1ccc(-c2ccnc3cc(C(=O)Nc4ccc(NC(=O)CN)cc4)nn23)cc1OC` [Compound 283, N-(4-(2-aminoacetamido)phenyl)-7-(3,4-dimethoxyphenyl)pyrazolo [1,5-a]pyrimidine-2-carboxamide]: in series [1], the solubility at 90 min was less than 0.1 µg/mL. For the same compound, the EC50 on human wild type-CFTR fell in the range of 200 to 2000 nM.

As for `COc1ccc(-c2ccnc3cc(C(=O)Nc4cccc(C(=O)N5CCN(C(=O)OC(C)(C)C)CC5)c4)nn23)cc1OC` [Compound 56, tert-butyl 4-(3-(7-(3,4-dimethoxyphenyl)pyrazolo [1,5-a]pyrimidine-2-carboxamido)benzoyl) piperazine-1-carboxylate], the solubility at 90 min in series [1] is less than 0.1 µg/mL. On human wild type-CFTR, the EC50 is less than 200 nM.
